Experimental findings from US20150352108A1, “AMINO-PYRIMIDINE COMPOUNDS AS INHIBITORS OF TBK1 AND/OR IKK EPSILON” (Alzheimer's Institute of America, priority 2009, published 2015) are described below.

In general, IC50 refers to the concentration that gives 50% inhibition.

The target in one experiment is T1, IKKε (Homo sapiens, UniProt Q14164).
T1 construct: His-tag; made in house; host or cells: Sf9 insect cells
T1 sequence (Q14164 1-716): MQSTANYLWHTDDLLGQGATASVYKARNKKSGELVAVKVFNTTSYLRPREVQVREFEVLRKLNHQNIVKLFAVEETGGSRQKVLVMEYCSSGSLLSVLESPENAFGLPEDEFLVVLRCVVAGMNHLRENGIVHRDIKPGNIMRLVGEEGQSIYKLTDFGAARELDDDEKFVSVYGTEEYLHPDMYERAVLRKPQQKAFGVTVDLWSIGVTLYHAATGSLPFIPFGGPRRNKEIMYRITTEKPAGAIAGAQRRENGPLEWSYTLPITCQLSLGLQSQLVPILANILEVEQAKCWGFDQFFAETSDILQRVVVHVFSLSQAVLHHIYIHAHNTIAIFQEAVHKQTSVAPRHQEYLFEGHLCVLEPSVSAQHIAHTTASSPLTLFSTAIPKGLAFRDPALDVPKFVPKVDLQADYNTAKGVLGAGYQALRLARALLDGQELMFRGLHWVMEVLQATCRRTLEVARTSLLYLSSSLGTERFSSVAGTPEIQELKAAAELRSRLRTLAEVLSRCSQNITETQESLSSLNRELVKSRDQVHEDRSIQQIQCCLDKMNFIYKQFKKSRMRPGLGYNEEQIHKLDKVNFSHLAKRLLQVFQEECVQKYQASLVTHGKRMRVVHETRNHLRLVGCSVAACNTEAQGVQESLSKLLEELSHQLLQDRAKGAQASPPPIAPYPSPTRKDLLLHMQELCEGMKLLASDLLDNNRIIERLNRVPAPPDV
The experiment is described as follows: In-vitro IKKε kinase assay ([γ33]ATP filter-plate). The experiment is classed as biochemical. As to conditions: text bins; read-out: IC50 for inhibition of the kinase activity of IKKε. A digest of the protocol: (§1)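 His-tagged Sf9-expressed kinases at 0.1 or 0.02 μg/ml (TBK1) and 0.1 or 0.015 μg/ml (IKKε) for normal and sensitized formats, with myelin basic protein or casein substrate. ATP was at 2×Km (60 μM TBK1, 32 μM IKKε) plus 0.3 μCi [γ33]ATP. Reactions ran 30-45 min, were captured on P-81 filters, and counts were normalized to DMSO.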

The next experiment addresses T2, TBK1 (Homo sapiens, UniProt Q9UHD2).
T2 construct: His-tag; made in house; host or cells: Sf9 insect cells
T2 sequence (Q9UHD2 1-729): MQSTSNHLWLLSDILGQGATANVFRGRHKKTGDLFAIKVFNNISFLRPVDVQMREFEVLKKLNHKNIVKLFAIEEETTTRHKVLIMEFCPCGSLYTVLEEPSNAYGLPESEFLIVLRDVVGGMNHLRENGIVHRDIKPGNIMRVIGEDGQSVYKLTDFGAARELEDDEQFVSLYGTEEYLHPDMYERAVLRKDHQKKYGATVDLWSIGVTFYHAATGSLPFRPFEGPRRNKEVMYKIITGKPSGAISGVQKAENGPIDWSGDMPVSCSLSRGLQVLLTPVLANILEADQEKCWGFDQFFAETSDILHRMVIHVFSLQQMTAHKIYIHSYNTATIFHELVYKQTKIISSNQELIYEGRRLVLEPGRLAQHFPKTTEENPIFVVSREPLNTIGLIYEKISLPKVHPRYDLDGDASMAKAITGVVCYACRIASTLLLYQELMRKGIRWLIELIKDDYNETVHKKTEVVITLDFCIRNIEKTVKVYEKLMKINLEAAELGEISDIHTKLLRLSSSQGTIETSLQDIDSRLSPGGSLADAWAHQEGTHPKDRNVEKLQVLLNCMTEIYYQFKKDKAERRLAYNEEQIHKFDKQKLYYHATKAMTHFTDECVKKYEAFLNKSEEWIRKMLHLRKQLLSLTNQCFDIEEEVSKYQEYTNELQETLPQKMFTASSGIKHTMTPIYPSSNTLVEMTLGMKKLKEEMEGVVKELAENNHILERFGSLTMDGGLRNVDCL
The experiment in a line: In-vitro TBK1 kinase assay ([γ33]ATP filter-plate). As to conditions: text bins; read-out: IC50 for inhibition of the kinase activity of TBK1. The experiment is classed as biochemical. The procedure, abridged:
as §1

Regarding `N#Cc1cccc(-c2ccnc(Nc3cccc(NC(=O)NC4CCCC4)c3)n2)c1` [Example 201, 1-(3-{[4-(3-Cyanophenyl)pyrimidin-2-yl]amino}phenyl)-3-cyclopentylurea], the IC50 on IKKε lay within 5 to 50 nM; on TBK1, 10 to 100 nM.
The corresponding values for `N#Cc1cc(-c2ccnc(Nc3ccc(N4CCOCC4)cc3)n2)ccc1OCC1CCCCO1` (stereo not drawn) [Example 205, 5-(2-{[4-(Morpholin-4-yl)phenyl]amino}pyrimidin-4-yl)-2-(tetrahydro-2H-pyran-2-ylmethoxy) benzonitrile] are 5 to 50 nM and 10 to 100 nM.
With `CN(C)C(=O)CCNc1ccc(Nc2nccc(-c3ccc(OC4CCOCC4)c(C#N)c3)n2)cc1` [Example 209, N~3~-[4-({4-[3-cyano-4-(tetrahydro-2H-pyran-4-yloxy)phenyl]pyrimidin-2-yl}amino)phenyl]-N,N-dimethyl-beta-alaninamide], the IC50 on IKKε was 5 to 50 nM; on TBK1, under 10 nM.
For `N#Cc1cc(-c2ccnc(Nc3ccc(N4CCOCC4)cc3)n2)ccc1OCCCO` [Example 210, 2-(3-Hydroxypropoxy)-5-(2-{[4-(morpholin-4-yl)phenyl]amino}pyrimidin-4-yl)benzonitrile], in that order: under 5 nM and under 10 nM.
The corresponding values for `CC(C)Nc1ccc(-c2ccnc(Nc3ccc(N4CCOCC4)cc3)n2)cc1C#N` [Example 211, 5-(2-{[4-(Morpholin-4-yl)phenyl]amino}pyrimidin-4-yl)-2-(propan-2-ylamino)benzonitrile] are under 5 nM and under 10 nM.
The corresponding values for `COc1cc(C#N)cc(-c2ccnc(Nc3cccc(NC(C)=O)c3)n2)c1` [Example 214, N-(3-{[4-(3-Cyano-5-methoxyphenyl)pyrimidin-2-yl]amino}phenyl) acetamide] are 5 to 50 nM and 10 to 100 nM.
Take `N#Cc1cc(-c2ccnc(Nc3ccc(N4CCOCC4)cc3)n2)ccc1OC1CCN(C(=O)CCO)CC1` [Example 215, 2-{[1-(3-Hydroxypropanoyl)piperidin-4-yl]oxy}-5-(2-{[4-(morpholin-4-yl)phenyl]amino}pyrimidin-4-yl)benzonitrile]: the IC50 on IKKε is 5 to 50 nM; on TBK1, under 10 nM.
The corresponding values for `N#Cc1cc(-c2ccnc(Nc3ccc(N4CCOCC4)cc3)n2)ccc1NC(=O)C1C[C@@H]1F` (stereo partly drawn) [Example 216, (2S)-N-[2-cyano-4-(2-{[4-(morpholin-4-yl)phenyl]amino}pyrimidin-4-yl)phenyl]-2-fluorocyclopropane-carboxamide] are under 5 nM and under 10 nM.
With `N#Cc1cc(-c2ccnc(Nc3ccc(N4CCOCC4)cc3)n2)ccc1N` [Example 217, 2-Amino-5-(2-{[4-(morpholin-4-yl)phenyl]amino}pyrimidin-4-yl)benzonitrile], the IC50 at IKKε is 5 to 50 nM; on TBK1, under 10 nM.
The corresponding values for `CNc1ccc(-c2ccnc(Nc3ccc(N4CCOCC4)cc3)n2)cc1C#N` [Example 218, 2-(Methylamino)-5-(2-{[4-(morpholin-4-yl)phenyl]amino}pyrimidin-4-yl)benzonitrile] are 5 to 50 nM and under 10 nM.
As for `N#Cc1cc(-c2ccnc(Nc3ccc(N4CCOCC4)cc3)n2)ccc1OCCN` [Example 220, 2-(2-aminoethoxy)-5-(2-{[4-(morpholin-4-yl)phenyl]amino}pyrimidin-4-yl)benzonitrile], the IC50 at IKKε is 5 to 50 nM; on TBK1 it was under 10 nM.
Turning to `N#Cc1cc(-c2ccnc(Nc3ccc(N4CCOCC4)cc3)n2)ccc1NCc1ccccc1` [Example 224], the values for the IC50 at IKKε and at TBK1 were 5 to 50 nM and 10 to 100 nM, respectively.
The corresponding values for `COc1ccc(-c2ccnc(Nc3cc(CN4CCOCC4)c(OC)c(OC)c3)n2)cc1C#N` [Example 226, 5-(2-{[3,4-Dimethoxy-5-(morpholin-4-ylmethyl)phenyl]amino}pyrimidin-4-yl)-2-methoxybenzonitrile] are 5 to 50 nM and 10 to 100 nM.
For `N#Cc1cc(-c2ccnc(Nc3ccc(N4CCOCC4)cc3)n2)ccc1OCCNC=O` [Example 230, N-{2-[2-cyano-4-(2-{[4-(morpholin-4-yl)phenyl]amino}pyrimidin-4-yl)phenoxy]ethyl} formamide], in that order: 5 to 50 nM and under 10 nM.
Consider `CC(C)(O)COc1ccc(-c2ccnc(Nc3ccc(N4CCOCC4)cc3)n2)cc1C#N` [Example 231, 2-(2-Hydroxy-2-methylpropoxy)-5-(2-{[4-(morpholin-4-yl)phenyl]amino}pyrimidin-4-yl)benzonitrile], for which the results for the IC50 at IKKε and on TBK1 were under 5 nM and 10 to 100 nM, respectively.
For `N#Cc1cc(-c2ccnc(Nc3ccc(N4CCOCC4)cc3)n2)ccc1OCC1CCN(C(=O)CO)CC1` [Example 233, 2-{[1-(hydroxyacetyl)piperidin-4-yl]methoxy}-5-(2-{[4-(morpholin-4-yl)phenyl]amino}pyrimidin-4-yl)benzonitrile], in that order: 5 to 50 nM and under 10 nM.
For `COC(=O)c1ccc(Nc2nccc(-c3ccc(OC4CCOCC4)c(C#N)c3)n2)cc1OC` [Example 235, methyl 4-({4-[3-cyano-4-(tetrahydro-2H-pyran-4-yloxy)phenyl]pyrimidin-2-yl}amino)-2-methoxybenzoate], in that order: under 5 nM and under 10 nM.
For the compound `COc1cc(Nc2nccc(-c3ccc(OC4CCOCC4)c(C#N)c3)n2)ccc1S(=O)(=O)NCCCN(C)C` [Example 237, 4-({4-[3-cyano-4-(tetrahydro-2H-pyran-4-yloxy)phenyl]pyrimidin-2-yl}amino)-N-[3-(dimethylamino)propyl]-2-methoxybenzene-sulfonamide], the IC50 on IKKε was under 5 nM; at TBK1, under 10 nM.
For `N#Cc1cc(-c2ccnc(Nc3ccc(N4CCOCC4)cc3)n2)ccc1OCCO` [Example 239, 2-(2-Hydroxyethoxy)-5-(2-{[4-(morpholin-4-yl)phenyl]amino}pyrimidin-4-yl)benzonitrile], in that order: under 5 nM and under 10 nM.
For `COc1cc(C#N)cc(-c2ccnc(Nc3ccc(N4CCOCC4)cc3)n2)c1` [Example 241, 3-Methoxy-5-(2-{[4-(morpholin-4-yl)phenyl]amino}pyrimidin-4-yl)benzonitrile], in that order: 5 to 50 nM and 10 to 100 nM.
The corresponding values for `N#Cc1cc(-c2ccnc(Nc3ccc(N4CCOCC4)cc3)n2)ccc1NS(=O)(=O)CC(F)(F)F` [Example 243, N-[2-cyano-4-(2-{[4-(morpholin-4-yl)phenyl]amino}pyrimidin-4-yl)phenyl]-2,2,2-trifluoroethane-sulfonamide] are 5 to 50 nM and 10 to 100 nM.
Consider `CS(=O)(=O)N1CCC(Oc2ccc(-c3ccnc(Nc4ccc(N5CCOCC5)cc4)n3)cc2C#N)CC1` [Example 246, 2-{[1-(Methylsulfonyl)piperidin-4-yl]oxy}-5-(2-{[4-(morpholin-4-yl)phenyl]amino}pyrimidin-4-yl)benzonitrile], for which the IC50 on IKKε was under 5 nM; on TBK1 it was under 10 nM.
With `COc1ccc(Nc2nccc(-c3cc(Cl)cc(C#N)c3)n2)cc1OC` [Example 248, 3-Chloro-5-{2-[(3,4-dimethoxyphenyl)amino]pyrimidin-4-yl}benzonitrile], the results for the IC50 at IKKε and on TBK1 were 5 to 50 nM and 10 to 100 nM, respectively.
For `COc1ccc(-c2ccnc(Nc3ccc(CN4CCOCC4)cc3)n2)cc1C#N` [Example 251, 2-Methoxy-5-(2-{[4-(morpholin-4-ylmethyl)phenyl]amino}pyrimidin-4-yl)benzonitrile], in that order: 5 to 50 nM and 10 to 100 nM.
